According to ChEMBL document CHEMBL1143853, “Daptomycin nonsusceptibility in Staphylococcus aureus with reduced vancomycin susceptibility is independent of alterations in MprF” (2007):
Values after ≈ are worked out from the molar mass of the structure shown.

How the values were obtained:
Staphylococcus aureus [1] = experiment: Antimicrobial activity against methicillin-resistant Staphylococcus aureus A6298 by agar dilution method; type: functional
Staphylococcus aureus [2] = experiment: Antimicrobial activity against methicillin-resistant Staphylococcus aureus A8796 by agar dilution method
Staphylococcus aureus [3] = experiment: Antimicrobial activity against methicillin-resistant Staphylococcus aureus A8090 by agar dilution method
Staphylococcus aureus [4] = experiment: Antimicrobial activity against methicillin-resistant Staphylococcus aureus A6300 by agar dilution method; type: functional
Staphylococcus aureus [5] = experiment: Antimicrobial activity against methicillin-resistant Staphylococcus aureus A8799 with mprF S337L mutation by agar dilution method; type: functional
Staphylococcus aureus [6] = experiment: Antimicrobial activity against methicillin-resistant Staphylococcus aureus A6224 by agar dilution method
Staphylococcus aureus [7] = experiment: Antimicrobial activity against methicillin-resistant Staphylococcus aureus A6226 by agar dilution method; type: functional
Staphylococcus aureus [8] = experiment: Antimicrobial activity against methicillin-resistant Staphylococcus aureus A8094 by agar dilution method; type: functional

**Q.** With `CCCCCCCCCC(=O)N[C@@H](Cc1c[nH]c2ccccc12)C(=O)N[C@H](CC(N)=O)C(=O)N[C@@H](CC(=O)O)C(=O)N[C@@H]1C(=O)NCC(=O)N[C@@H](CCCN)C(=O)N[C@@H](CC(=O)O)C(=O)N[C@H](C)C(=O)N[C@@H](CC(=O)O)C(=O)NCC(=O)N[C@H](CO)C(=O)N[C@@H]([C@H](C)CC(=O)O)C(=O)N[C@@H](CC(=O)c2ccccc2N)C(=O)O[C@@H]1C` as the molecule, how does the MIC (Staphylococcus aureus [1]) read?
**A.** 2 µg/mL (≈ 1.23 µM)

**Q.** What about the MIC (Staphylococcus aureus [2]) of the same molecule?
**A.** 0.5 µg/mL (≈ 0.309 µM)

**Q.** And the MIC (Staphylococcus aureus [3])?
**A.** 0.5 µg/mL (≈ 0.309 µM)

**Q.** What about the MIC (Staphylococcus aureus [4]) of the same molecule?
**A.** 1 µg/mL (≈ 0.617 µM)

**Q.** And the MIC (Staphylococcus aureus [5])?
**A.** 2 µg/mL (≈ 1.23 µM)

**Q.** And the MIC (Staphylococcus aureus [6])?
**A.** 0.5 µg/mL (≈ 0.309 µM)

**Q.** What about the MIC (Staphylococcus aureus [7]) of the same molecule?
**A.** 2 µg/mL (≈ 1.23 µM)

**Q.** And the MIC (Staphylococcus aureus [8])?
**A.** 2 µg/mL (≈ 1.23 µM)
